Experimental data: publication PMC6017357, “In Vitro Inhibitory Effects of Synthetic Cannabinoid EAM-2201 on Cytochrome P450 and UDP-Glucuronosyltransferase Enzyme Activities in Human Liver Microsomes” (Molecules : A Journal of Synthetic Chemistry and Natural …, 2018)

Target: T1, CYP2B6 (Homo sapiens, UniProt P20813)
T1 construct: from tissue; host or cells: ultrapooled human liver microsomes
T1 sequence (P20813 1-491): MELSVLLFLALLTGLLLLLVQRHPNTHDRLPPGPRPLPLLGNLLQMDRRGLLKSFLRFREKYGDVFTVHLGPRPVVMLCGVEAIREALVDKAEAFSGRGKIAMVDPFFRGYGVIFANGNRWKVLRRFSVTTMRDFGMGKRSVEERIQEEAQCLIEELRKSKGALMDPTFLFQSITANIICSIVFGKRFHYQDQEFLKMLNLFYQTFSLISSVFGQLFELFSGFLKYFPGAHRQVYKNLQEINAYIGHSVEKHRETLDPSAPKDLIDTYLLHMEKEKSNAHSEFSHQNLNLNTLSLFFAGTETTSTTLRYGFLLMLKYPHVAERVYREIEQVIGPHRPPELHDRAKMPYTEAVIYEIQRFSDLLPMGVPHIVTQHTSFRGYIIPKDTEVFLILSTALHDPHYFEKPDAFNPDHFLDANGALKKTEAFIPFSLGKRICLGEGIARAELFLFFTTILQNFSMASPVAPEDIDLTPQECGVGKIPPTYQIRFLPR
Experiment: CYP2B6-mediated bupropion hydroxylation in pooled human liver microsomes
Assay type: in vitro ADME
Details: up to 50 µM, without 30-min preincubation
Procedure: The inhibitory effects (IC50 values) of EAM-2201 on CYP2B6-catalyzed bupropion 4-hydroxylase activity were determined in ultrapooled human liver microsomes using LC-MS/MS [41]. Each incubation mixture was prepared in a total volume of 100 µL as follows: pooled human liver microsomes (5.2 pmol CYP), 1.0 mM NADPH, 10 mM magnesium chloride, 50 mM potassium phosphate buffer (pH 7.4), various concentrations of EAM-2201 in DMSO (final 0.1–50 µM, 0.5% DMSO) and CYP2B6-selective substrate and 50 µM bupropion. After a 3-min preincubation at 37 °C, reactions were initiated by adding NADPH, followed by incubation for 15 min at 37 °C in a shaking water bath. […] Aliquots (5 µL) of the diluted supernatants were analyzed by LC-MS/MS. […]
The metabolites formed from CYP substrates were simultaneously quantified using our previously described LC-MS/MS method. […] Quantification was performed by selected reaction monitoring (SRM) of the [M + H]^+ ion and the related product ion for each metabolite: acetaminophen, 152.1 > 110.3; N-desethylamodiaquine, 328.1 > 283.0; 7-hydroxycoumarin, 163.0 > 107.2; 4-hydroxybupropion, 256.1 > 238.0; 4′-hydroxydiclofenac, 312.0 > 231.1; 4′-hydroxy-mephenytoin, 235.1 > 150.1; 1′-hydroxybufuralol, 278.1 > 186.1; 1′-hydroxymidazolam, 341.9 > 324.0; ^13C2,^15N-acetaminophen, 155.1 > 111.2; and d9-1′-hydroxybufuralol, 287.2 > 187.0. […]

CCc1ccc(C(=O)c2cn(CCCCCF)c3ccccc23)c2ccccc12 [EAM-2201, (4-ethyl-1-naphthalenyl)[1-(5-fluoropentyl)-1H-indol-3-yl]-methanone]
inhibition of CYP2B6-mediated bupropion hydroxylation: negligibly inhibited
